Measurements reported in US20060258630A1, “Method for the prevention and treatment of uveitis” (BioXell S.p.A., priority 2003, published 2006).
“Also recorded” adds a separate entry of the source.

Assays:
female C57BL/6 mice = experiment: Determination of maximum tolerated dose (MTD), serum calcium / hypercalcemia; settings: for MTD (mice): oral daily for four days, highest dose without hypercalcemia (serum calcium>10.7 mg/dl); for MTD compared with the corresponding parent dihydroxy compound: (2) vs (1), (4) and (5) vs (3)
Method: (§1) The maximum tolerated dose of the vitamin D3 compounds of the invention were determined in eight week-old female C57BL/6 mice (3 mice/group) dosed orally (0.1 ml/mouse) with various concentrations of Vitamin D3 analogs daily for four days. Analogs were formulated in miglyol for a final concentration of 0.01, 0.03, 0.1 0.3, 1, 3, 10, 30, 100 and 300 μg/kg when given at 0.1 ml/mouse p.o. daily. Blood for serum calcium assay was drawn by tail bleed on day five, the final day of the study.

[1] = system: IFN-γ production in allogeneic PBMC co-culture (MLR); experiment: IFN-γ production by allogeneic T cell activation in the mixed leukocyte response (MLR), ELISA; format: cell-based; settings: 120 h, 5 days, read-out: INF-γ IC50
Method: Immature dendritic cells. (DC) were prepared as described in Romani, N. et al. (Romani, N. et al. (1996) J. Immunol. Meth. 196:137). IFN-γ production by allogeneic T cell activation in the mixed leukocyte response (MLR) was determined as described in Penna, G., et al., J Immunol., 164: 2405-2411 (2000).
Briefly, peripheral blood mononuclear cells (PBMC) were separated from buffy coats by Ficoll gradient and the same number (3×10^5) of allogeneic PBMC from 2 different donors were co-cultured in 96-well flat-bottom plates. The vitamin D3 compounds were added to each of the cultures.

[2] = Determination of maximum tolerated dose (MTD), serum calcium / hypercalcemia; settings: female, C57BL/6, mouse, serum, po
Method: as §1

[3] = system: EAU-susceptible B10.RIII mice; experiment: Experimental autoimmune uveoretinitis (EAU) induced with IRBP in CFA; format: in vivo; settings: for Prevention of EAU: administered from day −6 to 2
Description: EAU an autoimmune disease mediated by Th1-type uveitogenic CD4+ T cells serves as a model for human posterior uveitis. […] EAU development was followed by funduscopy and confirmed by histopathology on eyes collected 21 days after immunization.

[4] = system: primed lymph node cells (LN); experiment: In vitro assay of primed lymph node cells (LN) from EAU mice: proliferation, polarization, cytokine and chemokine release; format: cell-based; settings: for Inhibition of specific T cell proliferation and T cell polarization: primed lymph node cells, FIG. 4
Description: It can be concluded that delayed hypersensitivity to IRBP in treated mice is correlated with disease severity. […] Preventive treatment remarkably diminished both IFN-gamma and IL-17 production by LN.
In consistency with disease amelioration, Ag driven chemokine release, such as MIP-1a, Rantes and TARC, is inhibited by Vitamin D3 derivatives as shown in FIG. 5. The further mechanism(s) involved in inhibition of EAU by VDR agonists are being investigated.

| Compound | MTD (mice) (female C57BL/6 mice) [µg/kg] | IC50 [1] [nM] | MTD at 4 days [2] [µg/kg] | also measured |
| --- | --- | --- | --- | --- |
| C=C1/C(=C\C=C2/CCC[C@]3(C)C(C(C)CC#CC(C)(C)O)=CCC23)CC(OC(C)=O)C[C@@H]1OC(C)=O (stereo partly drawn) [(7), 1,3-Di-O-acetyl-1,25-dihydroxy-16-ene-23-yne-cholecalciferol] | 10 |  |  |  |
| C=C1/C(=C\C=C2/CCC[C@]3(C)C(C4(CCCC(C)(C)O)CC4)=CCC23)CC(OC(C)=O)C[C@@H]1OC(C)=O (stereo partly drawn) [(39), 1,3-Di-O-acetyl-1α,25-hydroxy-16-ene-20-cyclopropyl-cholecalciferol] | 3 |  |  |  |
| C=C1/C(=C\C=C2/CCC[C@]3(C)C(C(C)CC#CC(OC(C)=O)(C(F)(F)F)C(F)(F)F)=CCC23)CC(OC(C)=O)C[C@@H]1OC(C)=O (stereo partly drawn) [(13), 1,3,25-Tri-O-acetyl-1,25-dihydroxy-16-ene-23-yne-26,27-hexafluoro-cholecalciferol] | 3 |  |  |  |
| CC(=O)OC1C/C(=C/C=C2\CCC[C@@]3(C)C2CCC3C2(CC#CC(C)(C)O)CC2)C[C@@H](OC(C)=O)C1 (stereo partly drawn) [(24), 1,3-Di-O-acetyl-1,25-dihydroxy-20-cyclopropyl-23-yne-19-nor-cholecalciferol] |  | 0.802 | 100 |  |
| CC(=O)OC1C/C(=C/C=C2\CCC[C@]3(C)C(C4(CCCC(C)(C)O)CC4)=CCC23)C[C@@H](OC(C)=O)C1 (stereo partly drawn) [(37), 1,3-Di-O-acetyl-1α,25-dihydroxy-16-ene-20-cyclopropyl-19-nor-cholecalciferol] | 10 |  |  |  |
| C=C1/C(=C\C=C2/CCC[C@]3(C)C(C(C)C/C=C/C(C)(C)O)=CCC23)CC(OC(C)=O)C[C@@H]1OC(C)=O (stereo partly drawn) [(9), 1,3-Di-O-acetyl-1,25-dihydroxy-16,23E-diene-cholecalciferol] |  | 0.013 | 3 |  |
| C=C1/C(=C\C=C2/CCC[C@]3(C)C(C(C)C/C=C/[C@@](C)(O)C(F)(F)F)=CCC23)CC(OC(C)=O)C[C@@H]1OC(C)=O (stereo partly drawn) [(16), 1,3-Di-O-acetyl-1,25-dihydroxy-16,23E-diene-25R,26-trifluoro-cholecalciferol] |  | 0.0513 | 0.3 |  |
| CCC(O)(C#CCC(C)C1=CCC2/C(=C/C=C3/CC(OC(C)=O)C[C@H](OC(C)=O)C3)CCC[C@]12C)CC (stereo partly drawn) [(22), 1,3-Di-O-acetyl-1,25-dihydroxy-16-ene-23-yne-26,27-bishomo-19-nor-cholecalciferol] | 100 |  |  |  |
| CC(=O)OC1C/C(=C/C=C2\CCC[C@]3(C)C(C(C)CCCC(C)(C)O)=CCC23)C[C@@H](OC(C)=O)C1 (stereo partly drawn) [(18), 1,3-Di-O-acetyl-1,25-dihydroxy-16-ene-19-nor-cholecalciferol] |  | 0.003 | 3 |  |
| CC(=O)OC1C/C(=C/C=C2\CCC[C@@]3(C)C2CCC3C2(C/C=C/C(O)(C(F)(F)F)C(F)(F)F)CC2)C[C@@H](OC(C)=O)C1 (stereo partly drawn) [(31), 1,3-Di-O-acetyl-1,25-dihydroxy-20-cyclopropyl-23E-ene-26,27-hexafluoro-19-nor-cholecalciferol] | 0.3 |  |  |  |
| C=C1/C(=C\C=C2/CCC[C@@]3(C)C2CCC3C2(CC#CC(C)(C)O)CC2)CC(OC(C)=O)C[C@@H]1OC(C)=O (stereo partly drawn) [(29), 1,3-Di-O-acetyl-1,25-dihydroxy-20-cyclopropyl-23-yne-cholecalciferol] | 30 |  |  |  |
| C=C1/C(=C\C=C2/CCC[C@]3(C)C(C(C)CCCC(C)(C)O)=CCC23)CC(OC(C)=O)C[C@@H]1OC(C)=O (stereo partly drawn) [(11), 1,3-Di-O-acetyl-1,25-dihydroxy-16-ene-cholecalciferol] |  | 0.036 | 1 |  |
| CC(=O)OC1C/C(=C/C=C2\CCC[C@]3(C)C(C(C)CC#CC(OC(C)=O)(C(F)(F)F)C(F)(F)F)=CCC23)C[C@@H](OC(C)=O)C1 (stereo partly drawn) [(5), 1,3,25-Tri-O-acetyl-1,25-Dihydroxy-16-ene-23-yne-26,27-hexafluoro-19-nor-cholecalciferol] | 3 |  |  | MTD compared with the corresponding parent dihydroxy compound (female C57BL/6 mice): considerably-greater; also recorded: significantly higher |
| CC(=O)OC1C/C(=C/C=C2\CCC[C@]3(C)C(C(C)C/C=C\C(O)(C(F)(F)F)C(F)(F)F)=CCC23)C[C@@H](OC(C)=O)C1 (stereo partly drawn) [(2), 1,3-Di-O-acetyl-1,25-dihydroxy-16,23Z-diene-26,27-hexafluoro-19-nor-cholecalciferol] |  |  |  | MTD compared with the corresponding parent dihydroxy compound (female C57BL/6 mice): significantly higher |
| CC(CC#CC(O)(C(F)(F)F)C(F)(F)F)C1=CCC2C(=CC=C3CC(O)CC(O)C3)CCCC12C (stereo not drawn) [(3), 1,25-dihydroxy-16-ene-23-yne-26,27-hexafluoro-19-nor-cholecalciferol, reference compound] | 0.3 |  |  |  |
| C=C1/C(=C\C=C2/CCC[C@@]3(C)C2CCC3C2(CCCC(C)(C)O)CC2)C[C@@H](OC(C)=O)C[C@@H]1OC(C)=O (stereo partly drawn) [Compound (35), 1,3-Di-O-acetyl-1,25-dihydroxy-20-cyclopropyl-cholecalciferol] |  | 0.0027 | 30 | Prevention of EAU ([3]; Compound A 10 μg/kg orally, listed as Compound A): can prevent EAU; also recorded: capable of preventing; Inhibition of EAU development, therapeutic treatment ([3]; treatment started 7 days after immunization, listed as Compound A): could inhibit EAU development; also recorded: treating EAU; Inhibition of specific T cell proliferation and T cell polarization [4]: potent; IFN-g production ([4]; therapeutic administration): not; IL-17 production ([4]; therapeutic administration): markedly inhibited |
| C=C1/C(=C\C=C2/CCC[C@]3(C)[C@@H]([C@H](C)CCCC(C)(C)O)CC[C@@H]23)C[C@@H](O)C[C@@H]1O [1,25(OH)2D3, calcitriol, reference compound] |  | 0.022 | 1 | Prevention of EAU ([3]; calcitriol 0.5 μg/kg orally): can prevent EAU; also recorded: effectively prevents EAU; Inhibition of specific T cell proliferation and T cell polarization [4]: potent |
| CC(=O)OC1C/C(=C/C=C2\CCC[C@@]3(C)C2CCC3C2(C/C=C\C(O)(C(F)(F)F)C(F)(F)F)CC2)C[C@@H](OC(C)=O)C1 (stereo partly drawn) [(33), 1,3-Di-O-acetyl-1,25-dihydroxy-20-cyclopropyl-23Z-ene-26,27-hexafluoro-19-nor-cholecalciferol] |  | 0.099 | 10 |  |
| C=C1/C(=C\C=C2/CCC[C@]3(C)C(C(C)CC#CC(O)(C(F)(F)F)C(F)(F)F)=CCC23)CC(OC(C)=O)C[C@@H]1OC(C)=O (stereo partly drawn) [(14), 1,3-Di-O-acetyl-1,25-dihydroxy-16-ene-23-yne-26,27-hexafluoro-cholecalciferol] | 10 |  |  |  |
| C=C1/C(=C\C=C2/CCC[C@@]3(C)C2CCC3C(C)CC#CC(C)(C)O)CC(OC(C)=O)C[C@@H]1OC(C)=O (stereo partly drawn) [(41), 1,3-Di-O-acetyl-1,25-dihydroxy-23-yne-cholecalciferol] | 1 |  |  |  |
| CC(=O)OC1C/C(=C/C=C2\CCC[C@@]3(C)C2CCC3C2(CC#CC(OC(C)=O)(C(F)(F)F)C(F)(F)F)CC2)C[C@@H](OC(C)=O)C1 (stereo partly drawn) [(26), 1,3,25-Tri-O-acetyl-1,25-dihydroxy-20-cyclopropyl-23-yne-26,27-hexafluoro-19-nor-cholecalciferol] | 10 |  |  |  |
| CC(=O)OC1C/C(=C/C=C2\CCC[C@@]3(C)C2CCC3C2(CC#CC(O)(C(F)(F)F)C(F)(F)F)CC2)C[C@@H](OC(C)=O)C1 (stereo partly drawn) [(27), 1,3-Di-O-acetyl-1,25-dihydroxy-20-cyclopropyl-23-yne-26,27-hexafluoro-19-nor-cholecalciferol] | 10 |  |  |  |
| CC(=O)OC1C/C(=C/C=C2\CCC[C@]3(C)C(C(C)CC#CC(C)(C)O)=CCC23)C[C@@H](OC(C)=O)C1 (stereo partly drawn) [(20), 1,3-Di-O-Acetyl-1,25-dihydroxy-16-ene-23-yne-19-nor-cholecalciferol] |  | 0.025 | 30 |  |
| CC(=O)OC1C/C(=C/C=C2\CCC[C@]3(C)C(C(C)CC#CC(O)(C(F)(F)F)C(F)(F)F)=CCC23)C[C@@H](OC(C)=O)C1 (stereo partly drawn) [(4), 1,3-Di-O-acetyl-1,25-Dihydroxy-16-ene-23-yne-26,27-hexafluoro-19-nor-cholecalciferol] | 10 |  |  | MTD compared with the corresponding parent dihydroxy compound (female C57BL/6 mice): considerably-greater; also recorded: significantly higher |
